Molecular target: T1, catechol-O-methyltransferase (COMT) obtained from rat liver (Rattus norvegicus, UniProt P22734)
T1 construct: from tissue; host or cells: rat liver homogenate
T1 sequence (P22734 1-264): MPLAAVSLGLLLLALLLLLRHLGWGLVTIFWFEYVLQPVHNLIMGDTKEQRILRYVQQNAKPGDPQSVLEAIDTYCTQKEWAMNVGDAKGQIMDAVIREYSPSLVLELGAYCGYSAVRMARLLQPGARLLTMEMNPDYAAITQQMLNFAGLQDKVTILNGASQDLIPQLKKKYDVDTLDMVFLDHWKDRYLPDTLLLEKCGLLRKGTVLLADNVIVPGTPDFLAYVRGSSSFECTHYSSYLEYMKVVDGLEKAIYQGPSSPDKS
Assay: COMT inhibition, radiochemical assay with rat liver homogenate (Zürcher et al.)
Type: biochemical
Details: rat liver tissue extract; substrate benzene-1,2-diol 2.5 mM, [3H]SAM 183 μM; 15 min preincubation at 37° C., pH 7.6
Experimental: The inhibitory activity can be determined in vitro with COMT obtained from rat liver. Rat liver homogenate is incubated in the presence of a suitable substrate as described by Zürcher et al. in J. Neurochem. 1982, 38, 191-195 and the COMT activity is measured.
IC50 values were determined as follows: The inhibitors were dissolved in Me2SO as 1.2 mM stock solution and further diluted with Me2SO. The reactions were performed in standard polypropylene vials. 25 μl of the inhibitor in varying concentrations from 10^−4 to 10^−9 mol L^−1 were mixed with 215 μl freshly prepared buffer-substrate mixture consisting of 170 μl potassium phosphate buffer (0.1 mol L^−1, pH 7.6), 10 μl MgCl2, (0.1 mol L^−1), 10 μl dithiothreitol (0.065 mol L^−1) and 25 μl of tissue extract. The enzyme preparations were preincubated for 15 min at 37° C. The reaction was started by adding 30 μl substrate (benzene-1,2-diol, 0.025 mol L^−1), 10 μl [^3H]SAM (5.5 mmol L^−1, specific activity: 13.36 Bq mol^−1 (3.61 Cimol^−1) and 20 μl deionized H2O, reaching a final substrate concentration of 2.5 mM and a final [^1H]/[^3H]SAM concentration of 183 μM. The reaction was stopped after incubating the vials in a water-bath at 37° C. for 15 min by addition of 200 μl HOAc (5.7%) containing guaiacol (0.1 g L^−1). The reaction vessels were transferred into polyethylene scintillation vials and 3 ml of scintillation fluid (5 g butyl-PBD, dissolved in 200 ml toluene, made up to 1 L with n-hexane) was added.
The samples were counted in a Beckmann LS 6000 TA scintillation counter.

| SMILES | IC50 [nM] |
| --- | --- |
| Nc1ncnc2c1ncn2[C@@H]1O[C@H](/C=C/CNC(=O)c2cc(Br)cc(O)c2O)C(O)C1O (stereo in doubt) [Example 2, N1-{(E)-3-[(3aR,4R,6R,6aR)-5-(6-amino-9H-purin-9-yl)-3,4-dihydroxytetrahydrofuran-2-yl]prop-2-enyl}-5-bromo-2,3-dihydroxy-benzamide] | 28 |
| Nc1ncnc2c1ncn2[C@@H]1O[C@H](/C=C/CNC(=O)c2cc(C(=O)C(F)(F)F)cc(O)c2O)C(O)C1O (stereo in doubt) [Example 4, N1-{(E)-3-[(3aR,4R,6R,6aR)-5-(6-amino-9H-purin-9-yl)-3,4-dihydroxytetrahydrofuran-2-yl]prop-2-enyl}-5-(2,2,2-trifluoro-acetyl)-2,3-dihydroxy-benzamide] | 39 |
| Nc1ncnc2c1ncn2[C@@H]1O[C@H](/C=C/CNC(=O)c2cc(C(=O)c3ccncc3)cc(O)c2O)C(O)C1O (stereo in doubt) [Example 5, N1-{(E)-3-[(3aR,4R,6R,6aR)-5-(6-amino-9H-purin-9-yl)-3,4-dihydroxytetrahydrofuran-2-yl]prop-2-enyl}-5-(pyridine-4-carbonyl)-2,3-dihydroxy-benzamide] | 42 |
| Nc1ncnc2c1ncn2[C@@H]1O[C@H](/C=C/CNC(=O)c2cc(-c3ccc(F)cc3)cc(O)c2O)C(O)C1O (stereo in doubt) [Example 8, N1-{(E)-3-[(3aR,4R,6R,6aR)-5-(6-amino-9H-purin-9-yl)-3,4-dihydroxytetrahydrofuran-2-yl]prop-2-enyl}-5-(4-fluoro-phenyl)-2,3-dihydroxy-benzamide] | 21 |
| Cc1ccc(-c2cc(O)c(O)c(C(=O)NC/C=C/[C@H]3O[C@@H](n4cnc5c(N)ncnc54)C(O)C3O)c2)cc1 (stereo in doubt) [Example 9, N1-{(E)-3-[(3aR,4R,6R,6aR)-5-(6-amino-9H-purin-9-yl)-3,4-dihydroxytetrahydrofuran-2-yl]prop-2-enyl}-5-p-tolyl-2,3-dihydroxy-benzamide] | 23 |
| Nc1ncnc2c1ncn2[C@@H]1O[C@H](/C=C/CNC(=O)c2cc(-c3nccs3)cc(O)c2O)C(O)C1O (stereo in doubt) [Example 10, N1-{(E)-3-[(3aR,4R,6R,6aR)-5-(6-amino-9H-purin-9-yl)-3,4-dihydroxytetrahydrofuran-2-yl]prop-2-enyl}-5-thiazol-2-yl-2,3-dihydroxy-benzamide] | 27 |
| Nc1ncnc2c1ncn2[C@@H]1O[C@H](/C=C/CNC(=O)c2cc(-c3ccncc3)cc(O)c2O)C(O)C1O (stereo in doubt) [Example 12, N1-{(E)-3-[(3aR,4R,6R,6aR)-5-(6-amino-9H-purin-9-yl)-3,4-dihydroxytetrahydrofuran-2-yl]prop-2-enyl}-5-pyridin-4-yl-2,3-dihydroxy-benzamide] | 23 |
| Cc1ccc(S(=O)(=O)c2cc(O)c(O)c(C(=O)NC/C=C/[C@H]3O[C@@H](n4cnc5c(N)ncnc54)C(O)C3O)c2)cc1 (stereo in doubt) [Example 18, N1-{(E)-3-[(3aR,4R,6R,6aR)-5-(6-amino-9H-purin-9-yl)-3,4-dihydroxytetrahydrofuran-2-yl]prop-2-enyl}-5-(toluene-4-sulfonyl)-2,3-dihydroxy-benzamide] | 213 |
| Cc1ccc(C(=O)c2cc(O)c(O)c(C(=O)NC/C=C/[C@H]3O[C@@H](n4cnc5c(N)ncnc54)C(O)C3O)c2)cc1 (stereo in doubt) [Example 19, N1-{(E)-3-[(3aR,4R,6R,6aR)-5-(6-amino-9H-purin-9-yl)-3,4-dihydroxy-tetrahydrofuran-2-yl]prop-2-enyl}-5-(4-methyl-benzoyl)-2,3-dihydroxy-benzamide] | 34 |
| Nc1ncnc2c1ncn2C1OC(C=CCNC(=O)c2cc([N+](=O)[O-])cc(O)c2O)C(O)C1O (stereo not drawn) [comparative example, N-{3-[5-(6-Amino-purin-9-yl)-3,4-dihydroxy-tetrahydro-furan-2-yl]-allyl}-2,3-dihydroxy-5-nitro-benzamide, reference compound] | 9 |

Further molecules by falling IC50, results first:

| IC50 [nM] | SMILES |
| --- | --- |
| 2600 | Nc1ncnc2c1ncn2[C@@H]1O[C@H](/C=C/CNC(=O)c2cccc(O)c2O)C(O)C1O (stereo in doubt) [Example 1, N1-{(E)-3-[(3aR,4R,6R,6aR)-5-(6-amino-9H-purin-9-yl)-3,4-dihydroxytetrahydrofuran-2-yl]prop-2-enyl}-2,3-dihydroxy-benzamide] |
| 2000 | CN(C)C(=O)c1cc(O)c(O)c(C(=O)NC/C=C/[C@H]2O[C@@H](n3cnc4c(N)ncnc43)C(O)C2O)c1 (stereo in doubt) [Example 14, N1-{(E)-3-[(3aR,4R,6R,6aR)-5-(6-amino-9H-purin-9-yl)-3,4-dihydroxytetrahydrofuran-2-yl]prop-2-enyl}-5-dimethylcarbamoyl-2,3-dihydroxy-benzamide] |
| 608 | Cc1ccc(Cc2cc(O)c(O)c(C(=O)NC/C=C/[C@H]3O[C@@H](n4cnc5c(N)ncnc54)C(O)C3O)c2)cc1 (stereo in doubt) [Example 13, N1-{(E)-3-[(3aR,4R,6R,6aR)-5-(6-amino-9H-purin-9-yl)-3,4-dihydroxytetrahydrofuran-2-yl]prop-2-enyl}-5-(4-methyl-benzyl)-2,3-dihydroxy-benzamide] |
| 97 | CN(C)C(=O)/C=C/c1cc(O)c(O)c(C(=O)NC/C=C/[C@H]2O[C@@H](n3cnc4c(N)ncnc43)C(O)C2O)c1 (stereo in doubt) [Example 15, N1-{(E)-3-[(3aR,4R,6R,6aR)-5-(6-amino-9H-purin-9-yl)-3,4-dihydroxytetrahydrofuran-2-yl]prop-2-enyl}-5-((E)-2-dimethylcarbamoyl-vinyl)-2,3-dihydroxy-benzamide] |
| 83 | Nc1ncnc2c1ncn2[C@@H]1O[C@H](/C=C/CNC(=O)c2cc(C(=O)C3CCCCC3)cc(O)c2O)C(O)C1O (stereo in doubt) [Example 6, N1-{(E)-3-[(3aR,4R,6R,6aR)-5-(6-amino-9H-purin-9-yl)-3,4-dihydroxytetrahydrofuran-2-yl]prop-2-enyl}-5-cyclohexanecarbonyl-2,3-dihydroxy-benzamide] |
| 44 | Nc1ncnc2c1ncn2[C@@H]1O[C@H](/C=C/CNC(=O)c2cc(Cl)cc(O)c2O)C(O)C1O (stereo in doubt) [Example 7, N1-{(E)-3-[(3aR,4R,6R,6aR)-5-(6-amino-9H-purin-9-yl)-3,4-dihydroxytetrahydrofuran-2-yl]prop-2-enyl}-5-chloro-2,3-dihydroxy-benzamide] |
| 35 | Nc1ncnc2c1ncn2[C@@H]1O[C@H](/C=C/CNC(=O)c2cc(C(F)(F)F)cc(O)c2O)C(O)C1O (stereo in doubt) [Example 16, N1-{(E)-3-[(3aR,4R,6R,6aR)-5-(6-amino-9H-purin-9-yl)-3,4-dihydroxytetrahydrofuran-2-yl]prop-2-enyl}-5-trifluoromethyl-2,3-dihydroxy-benzamide] |
| 29 | N#Cc1cc(O)c(O)c(C(=O)NC/C=C/[C@H]2O[C@@H](n3cnc4c(N)ncnc43)C(O)C2O)c1 (stereo in doubt) [Example 3, N1-{(E)-3-[(3aR,4R,6R,6aR)-5-(6-amino-9H-purin-9-yl)-3,4-dihydroxytetrahydrofuran-2-yl]prop-2-enyl}-5-cyano-2,3-dihydroxy-benzamide] |

Test system: not given
Assay: not given
Details: not given

| melting point | SMILES |
| --- | --- |
| 134 °C (dec.) | Nc1ncnc2c1ncn2[C@@H]1O[C@H](/C=C/CNC(=O)c2cccc(O)c2O)C(O)C1O (stereo in doubt) [Example 1, N1-{(E)-3-[(3aR,4R,6R,6aR)-5-(6-amino-9H-purin-9-yl)-3,4-dihydroxytetrahydrofuran-2-yl]prop-2-enyl}-2,3-dihydroxy-benzamide] |
| 123 °C (dec.) | Nc1ncnc2c1ncn2[C@@H]1O[C@H](/C=C/CNC(=O)c2cc(Br)cc(O)c2O)C(O)C1O (stereo in doubt) [Example 2, N1-{(E)-3-[(3aR,4R,6R,6aR)-5-(6-amino-9H-purin-9-yl)-3,4-dihydroxytetrahydrofuran-2-yl]prop-2-enyl}-5-bromo-2,3-dihydroxy-benzamide] |
| 133 to 137 °C (dec.) | Nc1ncnc2c1ncn2[C@@H]1O[C@H](/C=C/CNC(=O)c2cc(-c3ccncc3)cc(O)c2O)C(O)C1O (stereo in doubt) [Example 12, N1-{(E)-3-[(3aR,4R,6R,6aR)-5-(6-amino-9H-purin-9-yl)-3,4-dihydroxytetrahydrofuran-2-yl]prop-2-enyl}-5-pyridin-4-yl-2,3-dihydroxy-benzamide] |

From patent US7319101B2, “COMT inhibitors for the treatment of depression and impaired cognition” (Hoffmann-La Roche Inc., priority 2003, dated 2008)
